Data from US7186703B2, “Derivatives of branched-chain lipophilic molecules and uses thereof” (D-Pharm Ltd., priority 2000, dated 2007).
“And” between values parts separate entries of the source, which are not always exact repeats. Identical values can stand only once.

Experiments:
[1] = system: blood brain barrier (BBB); assay: BBB permeabilization in rats, Evans blue extravasation into brain; assay type: in vivo, Sprague-Dawley rats; conditions: for MEC: Table 8, sodium salt, in µM; for μg EB/g brain (at EC50) / EC50 / MEC (minimal effective concentration): Table 5; for EC50: rat brain, intracarotid infusion, read-out: EC50 (Evans Blue extravasation); for permeabilization of the BBB (FIG. 1, in words): Evans blue extravasation in rat brain, 3,n-type BFAs; for MEC (minimal effective concentration): concentration giving 3 μg EB/g brain
Excerpt: Permeabilization of the BBB by DP-BFA was investigated in rat model system by monitoring accumulation in the brain of two markers: a) Evans blue dye (EB), which rapidly binds in vivo with albumin (NW 70 kD) and is an indicator for paracellular transport; and b) Fluorescein sodium salt (F—Na), MW 376 D, which is transported via the cellular space, and enables monitoring transcellular transport. Upon BBB disruption the Evans blue-albumin complex irreversibly accumulates in the intercellular space of the brain. The much smaller tracer fluorescein may be transported intracellularly to occupy both inter and intracellular space in the brain.
Blood brain barrier permeabilization in Sprague-Dawley rats was induced by brief exposure to DP-BFA. The animals were anesthetized with Rampun-Imalgen and DP-BFA test compounds were administered via the external carotid artery retrograde to the brain (Smith, Q. R. Methods of study. In: Physiology and Pharmacology of the Blood-Brain Barrier. Ed. Bradbury M. W. B. Spinger-Verlag. Berlin-Heidelberg-NY; 1992: 24–52). The pterygo-palathina artery was ligated to avoid escape of infused solutions towards the external head vasculature. DP-BFA solutions were infused over a period of 30 seconds or half an hour, using a Harvard Apparatus Syringe Pump. Blood flow through carotid communis artery was interrupted only at the time of infusion.
All tested DP-BFA molecules were prepared from stock solutions in either water or ethanol by diluting 200–1000 fold into solution of isosmotic mannitol (5%) in Tromethamine buffer (Sigma) or PBS (pH 7.4)
The markers, Evans blue (EB, 25 mg/ml) and fluorescein (F—Na, 12.5 mg/ml), in 1 ml solution, were injected intravenously immediately following administration of the tested DP-BFA, or after a specific time interval if reversibility of action was investigated. Supportive i.v. infusion of F—Na (12.5 mg/ml–100 μl/min) was performed for 8 minutes. Brains were washed with saline solution (60 ml) 10 min after the intracarotid “flash”. Brain ipsilateral and contralateral hemispheres and tumors, where applicable, were homogenized separately with 50% trichloroacetic acid (TCA). The markers concentrations in the cortex and in tumors, where, applicable, were determined spectrofluorometrically (Uyama, O. et al., (1988) J. Cereb. Blood Flow Metab. 8, 282–284: Abraham et al., (1996) Neurosci. Lett. 208, 85–88). The markers content was calculated as μg marker per one-gram brain tissue. Standard error and Student's test for statistical significance were used.
The experiment was carried out on male Sprague-Dawley rats weighing 250–320 g. The procedure described above in Example 17 was followed.
The effect of the tested compounds on the BBB opening was evaluated by two parameters:
a) efficacy—The degree of BBB opening estimated in terms of accumulation of Evans Blue albumin (μg EB/g brain tissue); and
b) potency—measured in terms of EC50 and minimal effective concentration (MEC) values. EC50 is the concentration of a tested compound producing 50% of the maximal effect of Evans Blue extravasation.
The effect of various DP-BFAs on BBB permeability was tested in the model system of rat brains, as described above in Example 17. Efficacy, namely the level of the BBB opening was expressed as the amount of Evans blue accumulated in the brain (μg EB/g brain). Potency of the tested molecules was estimated by their calculated EC50 and minimal effective concentration (MEC) values.

[2] = system: blood brain barrier (BBB); assay: BBB permeability to EB-albumin and Fluorescein in normal rat brains; assay type: in vivo; conditions: compounds at EC50 (Mannitol 25%); for Ratio F-Na/EB (mean of individual ratios): control 9.5 ± 1.6
Excerpt: The effect of various DP-BFAs on BBB permeabilization to molecules of different sizes was examined in vivo in the model system of normal rat brains.
The transport of two markers was followed: a) Evans blue bound to albumin (MW 70 kD) as an indicator for paracellular transport; and b) Fluorescein sodium salt (MW 376 D) that represents small size molecules.
The Evans blue dye (EB) and Fluorescein sodium salt (F—Na) were infused into the artery carotis externa over 30 seconds according to the protocol described above in Example 17. The test compounds were used at their EC50 concentrations. Control animals were treated with vehicle solution.
Evans blue extravasation is expressed as the percentage of the total amount of EB accumulated per one gram of brain tissue. The transport of fluorescein into the brain, which is dependent on the serum concentration of this molecule, is presented as percentage of the F—Na level in the serum.

[3] = assay type: in vivo; conditions: rats, sodium salt; for LC (minimal concentration that caused death): i.a., viability monitored 24 hours
Description: DP-BFA molecules were evaluated for safety and toxicity. Increasing doses of the tested compounds were administered intra-arterially (i.a.) into rats following the protocol described above in Example 17. Animal viability was monitored for 24 hours to evaluate lethal concentrations (LC). LC is defined as the minimal concentration that caused death.
Safety index is defined as the ratio between the lethal dose (LC) and the minimal effective concentration (MEC), wherein MEC corresponds to a calculated concentration of the tested compound that elicits accumulation of three times the amount of Evans blue accumulated in control animals treated with vehicle only, i.e. total accumulation of 3 μg EB. The higher the LC/MEC ratio is, the higher the safety index.

[4] = system: blood tumor barrier (BTB) of C6 glioma; assay: BTB opening in C6 glioma-bearing rats, Evans blue accumulation in tumor; assay type: in vivo, Sprague Dawley rats; conditions: for EC50: C6 glioma-bearing rats; for BTB EB μg/g Tumor: concentrations around EC50 (Mannitol 25%), unilateral 30 s infusion; for Specificity Tumor/Non-tumor (T/NT): ratio of EB accumulated in tumor and non-tumor brain
Description: (§1) In order to study the ability of DP-BFA compounds to modulate blood tumor barrier (BTB), a model system of C6 glioma-bearing rats, was employed.
(§2) Sprague Dawley (SD) rats were inoculated with C6 gliosarcoma cells following the procedure described by Bartus et al. (Exp Neurol (1996); 142:14–28). A small burr-hole was made in the frontal scalp bone of the rat fixed in a stereotaxis apparatus. Using a Hamilton syringe, 10 μl or 5 μl of media, containing 2.5×10^5 C6 gliosarcoma cells were inoculated into the frontal cortex. Coordinates were 1 mm posterior of bregma, 2.5 mm—lateral, and 3 mm—depth. The needle remained in the place for 5 min. After removal of the needle, fascia and scalp were sutured. The rats were checked 6–8 days after inoculation, when tumors of sufficient size (20–60 mg) had developed. The tumor was weighed after F—Na visualization and dissection. Parts of the rats' brains were subject to histological examinations and monitored for Evans Blue and Fluorescein uptake into ipsilateral tumour tissue, peritumoural tissue and contralateral tissue.
(§3) The bilateral tumor model system of C6 glioma-bearing rats described in Example 23 above was employed for screening of various derivatives of DP-BFA for their ability to permeabilize the blood brain barrier (BBB) in comparison to their effect on the blood tumor barrier (BTB). The experimental procedure described in Example 23 was followed except that the tumor-bearing rats were further treated with DP-BFA. The tested compounds, at concentrations around their EC50 values, were unilaterally infused into the external carotis artery over 30 seconds as described in Example 17. Animals treated with vehicle only serve as a control group. Permeabilization effect was quantitated by measuring accumulation of albumin bound Evans blue dye in tumor (T) versus non-tumor (NT) tissues.
(§4) Specificity index is defined as the ratio between the levels of EB accumulated in tumor and those accumulated in non-tumor brain tissues (T/NT).

[5] = system: blood brain barrier (BBB); assay: BBB opening in C6 glioma-bearing rats, Evans blue accumulation in non-tumor brain; assay type: in vivo, Sprague Dawley rats; conditions: concentrations around EC50 (Mannitol 25%), unilateral 30 s infusion
Description: as §1, §2, §3, §4

[6] = Octanol/saline solubility and partition coefficient, shake-flask technique; conditions: for LogPc (octanol-saline partition coefficient): octanol/physiological saline; for LogPc (octanol-saline partition coefficient) / Water mg/ml (solubility in aqueous solution): sodium salts; for Water mg/ml (solubility in aqueous solution): physiological saline as aqueous solution; for Octanol mg/ml (solubility in octanol): sodium salts of the branched fatty acids and their PO4 derivatives
Description: The lipophilicity values of various derivatives of branched fatty acids were estimated by comparing the solubility of these compounds in organic versus aqueous solutions. Octanol and physiological saline were used, respectively, as the organic and aqueous solutions. The partition coefficient (Pc) value, i.e. the octanol/saline distribution was measured by the shake-flask technique.

Compound | MEC [1] | Ratio F-Na/EB (mean of individual ratios) [2] | LC (minimal concentration that caused death) [3] | Safety LC/MEC [3] | EC50 [4] | BTB EB μg/g Tumor [4] | Specificity Tumor/Non-tumor (T/NT) [4] | BBB EB μg/g Non-tumor brain [5] | LogPc (octanol-saline partition coefficient) [6] | Water mg/ml (solubility in aqueous solution) [6] | Octanol mg/ml (solubility in octanol) [6] | μg EB/g brain (at EC50) [1] | EC50 [1] | permeabilization of the BBB (FIG. 1, in words) [1] | MEC (minimal effective concentration) [1] | % EB/g brain ([2]; control 0.04 ± 0.01) | Brain fluorescein uptake (% of serum F-Na level) ([2]; control 0.3 ± 0.08)
4-Hexadecanyl Phosphate [3,12-PO4] | 3.3 ± 0.5 | 5.9 | 63 ± 12 µM | 19.1 | 10 ± 2 µM | 14 ± 6 µg/g | 6.3 ± 1.3 | 2.5 ± 1.5 µg/g | 1.9 | >2.5 mg/mL | <5 mg/mL | – | – | – | – | – | –
CCCCCCCC(CCCCCCC)OP(=O)(O)O [7,7-PO4, 8-Pentadecyl phosphate] | – | – | – | – | – | – | – | – | <5 | >10 mg/mL | >10 mg/mL | – | – | – | – | – | –
CCCCCCCC(CCC)C(=O)[O-].[Na+] (stereo not shown) [3,7-Na, reference compound] | – | – | – | – | – | – | – | – | – | – | – | 0.8 μg EB/g brain | > 450 µM | – | – | – | –
CCCCCCCCCCCCC(CCC)OCCOCCOP(=O)(O)O (stereo not shown) [3,12-(ether)-DEG-PO4, 2-(4′-Hexadecanyloxy)ethoxyethyl phosphate] | – | – | – | – | – | – | – | – | 0.83 | >5 mg/mL | >5 mg/mL | – | – | – | – | – | –
CCCCCCCCCCCCCCCCC(CCC)C(=O)[O-].[Na+] (stereo not shown) [3,16-Na, reference compound] | 18 ± 2 | – | 431 ± 55 µM | 23.9 | – | – | – | – | 1.26 | 9.4 mg/mL | >20 mg/mL | – | 137 ± 17 µM | active | 18 ± 2 | – | –
4-Hexadecanoyloxyethyl phosphate [3,12-MEG-PO4] | 11 ± 2 | – | 80 ± 15 µM | – | 22 ± 3 µM | 25 ± 3 µg/g | 1.2 ± 0.2 | 21 ± 4 µg/g | 1.09 | >10 mg/mL | >10 mg/mL | – | – | – | – | – | –
4-Octadecyl phosphate [3,14-PO4] | 6.2 ± 0.9 | – | 134 ± 18 µM | 21.6 | – | – | – | – | – | – | – | – | – | – | – | – | –
CCCCCCCCCCC(CCC)C(=O)[O-].[Na+] (stereo not shown) [3,10-Na, reference compound] | – | – | – | – | – | – | – | – | – | – | – | 08 μg EB/g brain | ~700 µM | – | – | – | –
CCCCCCCCCCCCCCC(CCC)C(=O)[O-].[Na+] (stereo not shown) [3,14-Na, reference compound] | 9.1 ± 1.2 | 4.7 and 4.7 ± 1.7 | 78 ± 11 µM | 8.6 | – | – | – | – | 1.26 | >10 mg/mL | >20 mg/mL | 16.5 ± 2.5 μg EB/g brain | 40 ± 5 µM | active | 9.1 ± 12 | 0.8 ± 0.07% | 3.8 ± 0.5 % of the F—Na level in the ser
